Source: PubChem BioAssay (NCI)
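96-well plates; 48 h exposure; 5 concentrations. Endpoints by linear interpolation between flanking doses. Not reached: highest tested concentration assigned. TGI: total growth inhibition.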

Key:
Assay in all cases: NCI tumour cell line growth inhibition, 48 h
OVCAR-3 ovarian = test system: OVCAR-3 ovarian
HCT-116 colon = test system: HCT-116 colon
MCF7 breast = test system: MCF7 breast
MALME-3M melanoma = test system: MALME-3M melanoma
COLO 205 colon = test system: COLO 205 colon
SF-295 CNS = test system: SF-295 CNS
OVCAR-4 ovarian = test system: OVCAR-4 ovarian
EKVX NSCLC = test system: EKVX NSCLC
HL-60(TB) leukemia = test system: HL-60(TB) leukemia
ACHN renal = test system: ACHN renal
UACC-62 melanoma = test system: UACC-62 melanoma
MDA-MB-231 breast = test system: MDA-MB-231 breast
SNB-19 CNS = test system: SNB-19 CNS
UACC-257 melanoma = test system: UACC-257 melanoma
SNB-75 CNS = test system: SNB-75 CNS
DU-145 prostate = test system: DU-145 prostate
NCI-H226 lung = test system: NCI-H226 lung
KM12 colon = test system: KM12 colon
NCI-H522 lung = test system: NCI-H522 lung
NCI-H23 lung = test system: NCI-H23 lung
SW-620 colon = test system: SW-620 colon
RPMI-8226 leukemia = test system: RPMI-8226 leukemia
NCI/ADR-RES ovarian = test system: NCI/ADR-RES ovarian
HS 578T breast = test system: HS 578T breast
U251 CNS = test system: U251 CNS
786-0 renal = test system: 786-0 renal
LOX IMVI melanoma = test system: LOX IMVI melanoma
SF-268 CNS = test system: SF-268 CNS
MDA-MB-435 = test system: MDA-MB-435
SK-MEL-5 melanoma = test system: SK-MEL-5 melanoma
BT-549 breast = test system: BT-549 breast
HT29 colon = test system: HT29 colon
PC-3 prostate = test system: PC-3 prostate
K-562 leukemia = test system: K-562 leukemia
MOLT-4 leukemia = test system: MOLT-4 leukemia
SK-MEL-2 melanoma = test system: SK-MEL-2 melanoma
HOP-62 NSCLC = test system: HOP-62 NSCLC
A498 renal = test system: A498 renal
IGROV1 ovarian = test system: IGROV1 ovarian
CAKI-1 renal = test system: CAKI-1 renal
MDA-N = test system: MDA-N
SK-MEL-28 melanoma = test system: SK-MEL-28 melanoma
OVCAR-8 ovarian = test system: OVCAR-8 ovarian
RXF 393 renal = test system: RXF 393 renal
OVCAR-5 ovarian = test system: OVCAR-5 ovarian
HCC-2998 colon = test system: HCC-2998 colon
NCI-H460 lung = test system: NCI-H460 lung
UO-31 renal = test system: UO-31 renal
TK-10 renal = test system: TK-10 renal
HCT-15 colon = test system: HCT-15 colon
T-47D breast = test system: T-47D breast
SR leukemia = test system: SR leukemia
SN12C renal = test system: SN12C renal
A549 NSCLC = test system: A549 NSCLC
CCRF-CEM leukemia = test system: CCRF-CEM leukemia
SK-OV-3 ovarian = test system: SK-OV-3 ovarian
SF-539 CNS = test system: SF-539 CNS
M14 melanoma = test system: M14 melanoma

## C1=Nc2sc3c(c2C2=NCCN12)CCCC3
OVCAR-3 ovarian
  TGI: 32.3 µM
HCT-116 colon
  TGI: 30.5 µM
MCF7 breast
  TGI: 33.7 µM
MALME-3M melanoma
  TGI: 32.9 µM
COLO 205 colon
  TGI: 53.2 µM
SF-295 CNS
  TGI: 39.6 µM
OVCAR-4 ovarian
  TGI: 42.1 µM
EKVX NSCLC
  TGI: 32 µM
HL-60(TB) leukemia
  TGI: 36.5 µM
ACHN renal
  TGI: 30.8 µM
UACC-62 melanoma
  TGI: 29 µM
MDA-MB-231 breast
  TGI: 30.3 µM
SNB-19 CNS
  TGI: 34.9 µM
UACC-257 melanoma
  TGI: 30 µM
SNB-75 CNS
  TGI: 34.9 µM
DU-145 prostate
  TGI: 30.1 µM
NCI-H226 lung
  TGI: 33.2 µM
KM12 colon
  TGI: 31.3 µM
NCI-H522 lung
  TGI: 30.9 µM
NCI-H23 lung
  TGI: 29.3 µM
SW-620 colon
  TGI: 43.8 µM
RPMI-8226 leukemia
  TGI: 43.3 µM
NCI/ADR-RES ovarian
  TGI: 34.6 µM
HS 578T breast
  TGI: 51.8 µM
U251 CNS
  TGI: 41.7 µM
786-0 renal
  TGI: 34.1 µM
LOX IMVI melanoma
  TGI: 28.2 µM
SF-268 CNS
  TGI: 52.1 µM
MDA-MB-435
  TGI: 41 µM
SK-MEL-5 melanoma
  TGI: 34.3 µM
BT-549 breast
  TGI: 28.7 µM
HT29 colon
  TGI: 32.8 µM
PC-3 prostate
  TGI: 30.7 µM
K-562 leukemia
  TGI: > 100 µM
MOLT-4 leukemia
  TGI: 36.4 µM
SK-MEL-2 melanoma
  TGI: 20.7 µM
HOP-62 NSCLC
  TGI: 37.2 µM
A498 renal
  TGI: 46.6 µM
IGROV1 ovarian
  TGI: 30.8 µM
CAKI-1 renal
  TGI: 31.1 µM
MDA-N
  TGI: 35.5 µM
SK-MEL-28 melanoma
  TGI: 41 µM
OVCAR-8 ovarian
  TGI: 32.1 µM
RXF 393 renal
  TGI: 44.9 µM
OVCAR-5 ovarian
  TGI: 35.9 µM
HCC-2998 colon
  TGI: 24.3 µM
NCI-H460 lung
  TGI: 32.4 µM
UO-31 renal
  TGI: 30.1 µM
TK-10 renal
  TGI: 30.7 µM
HCT-15 colon
  TGI: 30.4 µM
T-47D breast
  TGI: 39.9 µM
SR leukemia
  TGI: > 100 µM

## CN(C)CCNC(=O)Cn1cc([N+](=O)[O-])c(=O)c2ccccc21
OVCAR-3 ovarian
  TGI: > 100 µM
HCT-116 colon
  TGI: > 100 µM
MCF7 breast
  TGI: > 100 µM
MALME-3M melanoma
  TGI: > 100 µM
COLO 205 colon
  TGI: > 100 µM
SF-295 CNS
  TGI: > 100 µM
HL-60(TB) leukemia
  TGI: > 100 µM
ACHN renal
  TGI: > 100 µM
UACC-62 melanoma
  TGI: > 100 µM
MDA-MB-231 breast
  TGI: > 100 µM
SNB-19 CNS
  TGI: > 100 µM
SN12C renal
  TGI: > 100 µM
UACC-257 melanoma
  TGI: > 100 µM
SNB-75 CNS
  TGI: > 100 µM
DU-145 prostate
  TGI: > 100 µM
NCI-H226 lung
  TGI: > 100 µM
KM12 colon
  TGI: > 100 µM
NCI-H522 lung
  TGI: > 100 µM
NCI-H23 lung
  TGI: > 100 µM
SW-620 colon
  TGI: > 100 µM
NCI/ADR-RES ovarian
  TGI: > 100 µM
A549 NSCLC
  TGI: > 100 µM
HS 578T breast
  TGI: > 100 µM
U251 CNS
  TGI: > 100 µM
CCRF-CEM leukemia
  TGI: > 100 µM
786-0 renal
  TGI: > 100 µM
SF-268 CNS
  TGI: > 100 µM
MDA-MB-435
  TGI: > 100 µM
SK-MEL-5 melanoma
  TGI: > 100 µM
BT-549 breast
  TGI: > 100 µM
HT29 colon
  TGI: > 100 µM
PC-3 prostate
  TGI: > 100 µM
K-562 leukemia
  TGI: > 100 µM
SK-OV-3 ovarian
  TGI: > 100 µM
MOLT-4 leukemia
  TGI: > 100 µM
SF-539 CNS
  TGI: > 100 µM
SK-MEL-2 melanoma
  TGI: > 100 µM
HOP-62 NSCLC
  TGI: > 100 µM
A498 renal
  TGI: > 100 µM
IGROV1 ovarian
  TGI: > 100 µM
CAKI-1 renal
  TGI: > 100 µM
MDA-N
  TGI: > 100 µM
M14 melanoma
  TGI: > 100 µM
SK-MEL-28 melanoma
  TGI: > 100 µM
OVCAR-8 ovarian
  TGI: > 100 µM
OVCAR-5 ovarian
  TGI: > 100 µM
HCC-2998 colon
  TGI: > 100 µM
NCI-H460 lung
  TGI: > 100 µM
UO-31 renal
  TGI: > 100 µM
TK-10 renal
  TGI: > 100 µM
HCT-15 colon
  TGI: > 100 µM
T-47D breast
  TGI: > 100 µM
SR leukemia
  TGI: > 100 µM
